Experimental data taken from patent publication US5001158A, “Nitrosoureas compounds preparation thereof and utilization thereof in anticancerous” (Centre National de la Recherche Scientifique, priority 1990, dated 1991).

How the values were obtained:
[1] = Pharmacokinetic comparison of mixture A1 A2 with CNCC, all animal species; format: in vivo, mice, rats and rabbits; settings: p.o.; for plasma concentrations after A1 A2 compared with after CNCC (in words): equivalent doses, whatever the animal species
Procedure: (§1) The plasma absorption and clearance kinetics of the products A1 and A2 according to the invention were studied on different animal species after oral administration. A mixture A1 A2 in the proportions 70%/30% was used so as to be able to make a comparison with CNCC. The mixture A1 A2 and the CNCC were administered at equivalent doses and the plasma concentrations of A1 and A2 were measured as a function of time. cl (a) Experimental protocol
(§2) A solution of the mixture A1 A2 in distilled water is administered by stomach tube at a dose of 574 mg/m^2. A suspension of CNCC in olive oil is administered at a dose of 500 mg/m^2, also by stomach tube.
(§3) The blood, taken by cardiac puncture, is centrifuged rapidly at 4° C. The plasma (1 ml) is deposited on a cartridge of Extrelut® and extraction is carried out with 6 ml of methylene chloride. After evaporation, the dry extract is taken up in 150 μl of methylene chloride for chromatographic analysis.
(§4) Analysis of the plasma extracts for measuring the concentrations of A1 and A2 was performed by high performance liquid chromatography using the following technology:
The plasma concentrations of A1 and A2 after oral administration of either the mixture A1 A2 or CNCC to mice, rats and rabbits are reported in Table V.

[2] = Plasma concentrations of A1 and A2 after oral administration, mice; format: in vivo; settings: mouse, n = 10; for concentration at 1.5 h: 1 H 30 MIN; for concentration: 3 H; for concentration at 4.5 h: 4 H 30 MIN; for concentration at 0.25 h: 15 MIN; for concentration at 0.5 h: 30 MIN; for concentration at 0.75 h: 45 MIN
Procedure: as §1, §2, §3, §4
(§5) Detector: Pye Unicam spectrophotometer (Philips)λ250 nm.
(§6) Elution carried out by means of a linear gradient ranging from methylene chloride 99.6%/ethanol 0.4% to methylene chloride 95%/ethanol 5% in 15 minutes

[3] = test system: leukemia L 1210; experiment: Antitumoral activity of A1 and A2 on leukemia L 1210 grafted i.p. in mice (ICIG); format: in vivo, mice (B6 D2 F1 OLA); settings: for antitumoral activity (in words): isomers separately
Procedure: This activity was also studied on mice carrying leukemia L 1210 grafted i.p. This experimental tumor is the one most frequently used in the primary screening of cytostatic drugs.
These tests were conducted in parallel in two laboratories: at Unit 71 of the Institut National de la Sante et de la Recberche Mediecale (INSERM), ClermontFerrand, and at the Institut de Cancerologie et d' Immunogenetique (ICIG), Villejuif.
On day D:0, three-month-old male B6 D2 F1 mice received 10^5 cells of the leukemia strain L 1210 by intraperitoneal administration. The animals are divided up into groups of 8 to 10 animals for the control groups and 6 to 8 animals for the treated groups. On days D:1, D:5 and D:9, the animals receive the treatment at different doses by intraperitoneal or intravenous administration. The CNCC is administered as a suspension in olive oil. The products according to the invention are administered in physiological serum. The mortality is recorded every day. The survival median was determined for the treated animals and the control animals. The results are considered to be positive if the index I= [formula] is greater than 125.
The value .infin. means that 50% to 100% of the animals have survived to day D:90.
The cytostatic activity oi A1 and A2 on leukemia L 1210 was evaluated on B6 D2 F1 OLA mice at ICIG.
ICIG also studied the antitumoral activity of each isomer A1 and A2, separately administered intravenously, on leukemia L 1210. […] Comparison of the active doses with those of CNCC is impossible because of the insolubility of CNCC, as mentioned previously.

[4] = Plasma concentrations of A1 and A2 after oral administration, rats; format: in vivo; settings: rat, n = 5; for concentration at 1.5 h: 1 H 30 MIN; for concentration: 3 H; for concentration at 4.5 h: 4 H 30 MIN; for concentration at 0.25 h: 15 MIN; for concentration at 0.5 h: 30 MIN; for concentration at 0.75 h: 45 MIN
Procedure: as §1, §2, §3, §4, §5, §6

[5] = Plasma concentrations of A1 and A2 after oral administration, rabbits; format: in vivo; settings: rabbit, n = 5; for concentration at 1.5 h: 1 H 30 MIN; for concentration: 3 H; for concentration at 4.5 h: 4 H 30 MIN; for concentration at 0.25 h: 15 MIN; for concentration at 0.5 h: 30 MIN; for concentration at 0.75 h: 45 MIN
Procedure: as §1, §2, §3, §4, §5, §6

[6] = after mixture A1 A2 574 mg/m^2 p.o.

C[S+]([O-])CCN(N=O)C(=O)NCCCl (centres unmarked) [Compound A1]
bioavailability compared with CNCC (in words) [1]: greater than that of CNCC
plasma concentrations after A1 A2 compared with after CNCC (in words) [1]: much higher
concentration at 1.5 h ([2]; after CNCC 500 mg/m^2 p.o.): 26.2 µM
concentration at 1 h ([2]; after CNCC 500 mg/m^2 p.o.): 37.1 µM
concentration at 2 h ([2]; after CNCC 500 mg/m^2 p.o.): 20.2 µM
concentration ([2]; after CNCC 500 mg/m^2 p.o.): 11 µM
concentration at 4.5 h ([2]; after CNCC 500 mg/m^2 p.o.): 6.5 µM
concentration at 5 min ([2]; after CNCC 500 mg/m^2 p.o.): 13.7 µM
concentration at 0.25 h ([2]; after CNCC 500 mg/m^2 p.o.): 34.2 µM
concentration at 0.5 h ([2]; after CNCC 500 mg/m^2 p.o.): 71.4 µM
concentration at 0.75 h ([2]; after CNCC 500 mg/m^2 p.o.): 32.8 µM
concentration at 1.5 h [2, 6]: 35.4 µM
concentration at 1 h [2, 6]: 88 µM
concentration at 2 h [2, 6]: 23.3 µM
concentration [2, 6]: 10.1 µM
concentration at 4.5 h [2, 6]: 4.3 µM
concentration at 5 min [2, 6]: 208 µM
concentration at 0.25 h [2, 6]: 206 µM
concentration at 0.5 h [2, 6]: 177 µM
concentration at 0.75 h [2, 6]: 124 µM
T/C × 100 (cell: toxic) ([3]; 60 mg/kg i.v.): toxic
antitumoral activity (in words) ([3]; i.v.): low activity
concentration at 1.5 h ([4]; after CNCC 500 mg/m^2 p.o.): 20.3 µM
concentration at 1 h ([4]; after CNCC 500 mg/m^2 p.o.): 18.4 µM
concentration at 2 h ([4]; after CNCC 500 mg/m^2 p.o.): 12.7 µM
concentration ([4]; after CNCC 500 mg/m^2 p.o.): 11.1 µM
concentration at 4.5 h ([4]; after CNCC 500 mg/m^2 p.o.): 3.9 µM
concentration at 5 min ([4]; after CNCC 500 mg/m^2 p.o.): 2.8 µM
concentration at 0.25 h ([4]; after CNCC 500 mg/m^2 p.o.): 8 µM
concentration at 0.5 h ([4]; after CNCC 500 mg/m^2 p.o.): 12 µM
concentration at 0.75 h ([4]; after CNCC 500 mg/m^2 p.o.): 14.8 µM
concentration at 1.5 h [4, 6]: 29.2 µM
concentration at 1 h [4, 6]: 32.9 µM
concentration at 2 h [4, 6]: 15.7 µM
concentration [4, 6]: 7.3 µM
concentration at 5 min [4, 6]: 22.3 µM
concentration at 0.25 h [4, 6]: 42.4 µM
concentration at 0.5 h [4, 6]: 52.9 µM
concentration at 0.75 h [4, 6]: 33.9 µM
concentration at 1.5 h ([5]; after CNCC 500 mg/m^2 p.o.): 8.6 µM
concentration at 2 h ([5]; after CNCC 500 mg/m^2 p.o.): 7.4 µM
concentration ([5]; after CNCC 500 mg/m^2 p.o.): 4.7 µM
concentration at 4.5 h ([5]; after CNCC 500 mg/m^2 p.o.): 2.8 µM
concentration at 5 min ([5]; after CNCC 500 mg/m^2 p.o.): 5 µM
concentration at 0.25 h ([5]; after CNCC 500 mg/m^2 p.o.): 9.4 µM
concentration at 0.5 h ([5]; after CNCC 500 mg/m^2 p.o.): 10.6 µM
concentration at 0.75 h ([5]; after CNCC 500 mg/m^2 p.o.): 10 µM
concentration at 1.5 h [5, 6]: 27 µM
concentration at 1 h [5, 6]: 39.4 µM
concentration at 2 h [5, 6]: 19.4 µM
concentration [5, 6]: 10.6 µM
concentration at 4.5 h [5, 6]: 3.8 µM
concentration at 5 min [5, 6]: 26.7 µM
concentration at 0.25 h [5, 6]: 28.5 µM
concentration at 0.5 h [5, 6]: 41 µM
concentration at 0.75 h [5, 6]: 39.2 µM

C[S+]([O-])CCNC(=O)N(CCCl)N=O (centres unmarked) [Compound A2]
bioavailability compared with CNCC (in words) [1]: greater than that of CNCC
plasma concentrations after A1 A2 compared with after CNCC (in words) [1]: much higher
plasma concentration after A1 A2 compared with after CNCC (in words) ([1]; preliminary data): considerably greater
concentration at 1.5 h ([2]; after CNCC 500 mg/m^2 p.o.): 12.7 µM
concentration at 1 h ([2]; after CNCC 500 mg/m^2 p.o.): 19 µM
concentration at 2 h ([2]; after CNCC 500 mg/m^2 p.o.): 9.9 µM
concentration ([2]; after CNCC 500 mg/m^2 p.o.): 6.7 µM
concentration at 4.5 h ([2]; after CNCC 500 mg/m^2 p.o.): 3.5 µM
concentration at 5 min ([2]; after CNCC 500 mg/m^2 p.o.): 5.3 µM
concentration at 0.25 h ([2]; after CNCC 500 mg/m^2 p.o.): 13.2 µM
concentration at 0.5 h ([2]; after CNCC 500 mg/m^2 p.o.): 35.7 µM
concentration at 0.75 h ([2]; after CNCC 500 mg/m^2 p.o.): 16.5 µM
concentration at 1.5 h [2, 6]: 10.8 µM
concentration at 1 h [2, 6]: 29.9 µM
concentration at 2 h [2, 6]: 6.3 µM
concentration [2, 6]: 2.9 µM
concentration at 4.5 h [2, 6]: 0.9 µM
concentration at 5 min [2, 6]: 83 µM
concentration at 0.25 h [2, 6]: 81.5 µM
concentration at 0.5 h [2, 6]: 66.3 µM
concentration at 0.75 h [2, 6]: 43.7 µM
T/C × 100 ([3]; 5 mg/kg i.v.): .infin. (50% to 100% of the animals have survived to day D:90)
T/C × 100 ([3]; 10 mg/kg i.v.): .infin. (50% to 100% of the animals have survived to day D:90)
interval between doses for maximum efficacy (IDME) ([3]; i.v.): presence of an IDME
percentage of mice surviving to day D:100 (in words) ([3]; i.v.): high percentage
antitumoral activity (in words) ([3]; i.v.): high activity
concentration at 1.5 h ([4]; after CNCC 500 mg/m^2 p.o.): 11.4 µM
concentration at 1 h ([4]; after CNCC 500 mg/m^2 p.o.): 8.1 µM
concentration at 2 h ([4]; after CNCC 500 mg/m^2 p.o.): 6.4 µM
concentration ([4]; after CNCC 500 mg/m^2 p.o.): 6.5 µM
concentration at 4.5 h ([4]; after CNCC 500 mg/m^2 p.o.): 2.2 µM
concentration at 5 min ([4]; after CNCC 500 mg/m^2 p.o.): 0.9 µM
concentration at 0.25 h ([4]; after CNCC 500 mg/m^2 p.o.): 3.2 µM
concentration at 0.5 h ([4]; after CNCC 500 mg/m^2 p.o.): 5.4 µM
concentration at 0.75 h ([4]; after CNCC 500 mg/m^2 p.o.): 7.2 µM
concentration at 1.5 h [4, 6]: 12.9 µM
concentration at 1 h [4, 6]: 14.2 µM
concentration at 2 h [4, 6]: 7.8 µM
concentration [4, 6]: 2.9 µM
concentration at 5 min [4, 6]: 8.5 µM
concentration at 0.25 h [4, 6]: 17.7 µM
concentration at 0.5 h [4, 6]: 22.5 µM
concentration at 0.75 h [4, 6]: 11.4 µM
concentration at 1.5 h ([5]; after CNCC 500 mg/m^2 p.o.): 4.2 µM
concentration at 2 h ([5]; after CNCC 500 mg/m^2 p.o.): 3.5 µM
concentration ([5]; after CNCC 500 mg/m^2 p.o.): 2 µM
concentration at 4.5 h ([5]; after CNCC 500 mg/m^2 p.o.): 1 µM
concentration at 5 min ([5]; after CNCC 500 mg/m^2 p.o.): 1.8 µM
concentration at 0.25 h ([5]; after CNCC 500 mg/m^2 p.o.): 5 µM
concentration at 0.5 h ([5]; after CNCC 500 mg/m^2 p.o.): 6 µM
concentration at 0.75 h ([5]; after CNCC 500 mg/m^2 p.o.): 5.5 µM
concentration at 1.5 h [5, 6]: 9.2 µM
concentration at 1 h [5, 6]: 14.2 µM
concentration at 2 h [5, 6]: 6.3 µM
concentration [5, 6]: 2.9 µM
concentration at 4.5 h [5, 6]: 0.7 µM
concentration at 5 min [5, 6]: 11 µM
concentration at 0.25 h [5, 6]: 11.7 µM
concentration at 0.5 h [5, 6]: 16.5 µM
concentration at 0.75 h [5, 6]: 15 µM
